The source of these data is article PMC11539244, “Relative inhibitory activities of newly developed diazabicyclooctanes, boronic acid derivatives, and penicillin-based sulfone β-lactamase inhibitors against broad-spectrum AmpC β-lactamases” (Antimicrobial Agents and Chemotherapy, 2024).

Read-outs that look alike come from different tables or passages of the source. Some results are limits rather than exact numbers.

For one test, the target named is ACT-7 (Enterobacter asburiae, UniProt B6V6L3). The test is described as follows: biochemical.
Chain of ACT-7 (B6V6L3 entry or part of it): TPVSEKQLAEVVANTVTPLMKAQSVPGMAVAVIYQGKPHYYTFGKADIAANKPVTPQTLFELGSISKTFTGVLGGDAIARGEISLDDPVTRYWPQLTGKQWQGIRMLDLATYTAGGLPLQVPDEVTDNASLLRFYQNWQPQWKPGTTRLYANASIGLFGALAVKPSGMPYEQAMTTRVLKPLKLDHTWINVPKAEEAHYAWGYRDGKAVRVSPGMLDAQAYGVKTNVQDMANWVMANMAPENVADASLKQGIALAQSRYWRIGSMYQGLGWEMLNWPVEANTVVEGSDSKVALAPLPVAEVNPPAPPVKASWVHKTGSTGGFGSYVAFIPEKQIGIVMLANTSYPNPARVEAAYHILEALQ
In the next test the target is SRT-1 (Serratia marcescens, UniProt P18539). Kind of test: IC50 of β-lactamase inhibitors, crude extract, SRT-1. Format: biochemical. Particulars: crude extract of E. coli TOP10 recombinant strain, mean of triplicate.
Chain of SRT-1 (P18539 22-376): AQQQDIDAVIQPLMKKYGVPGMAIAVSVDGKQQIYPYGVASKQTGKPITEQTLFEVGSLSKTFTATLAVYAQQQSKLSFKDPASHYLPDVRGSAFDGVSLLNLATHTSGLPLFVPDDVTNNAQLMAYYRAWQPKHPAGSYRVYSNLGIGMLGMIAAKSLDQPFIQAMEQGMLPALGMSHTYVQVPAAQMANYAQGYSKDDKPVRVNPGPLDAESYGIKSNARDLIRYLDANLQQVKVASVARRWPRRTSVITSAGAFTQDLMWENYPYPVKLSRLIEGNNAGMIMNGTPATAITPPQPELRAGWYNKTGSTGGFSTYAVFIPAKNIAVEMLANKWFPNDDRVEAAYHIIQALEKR
In the next test the target is LAT-1 (Citrobacter portucalensis, UniProt Q48443). The test is described as follows: biochemical.
Chain of LAT-1 (Q48443 entry or part of it): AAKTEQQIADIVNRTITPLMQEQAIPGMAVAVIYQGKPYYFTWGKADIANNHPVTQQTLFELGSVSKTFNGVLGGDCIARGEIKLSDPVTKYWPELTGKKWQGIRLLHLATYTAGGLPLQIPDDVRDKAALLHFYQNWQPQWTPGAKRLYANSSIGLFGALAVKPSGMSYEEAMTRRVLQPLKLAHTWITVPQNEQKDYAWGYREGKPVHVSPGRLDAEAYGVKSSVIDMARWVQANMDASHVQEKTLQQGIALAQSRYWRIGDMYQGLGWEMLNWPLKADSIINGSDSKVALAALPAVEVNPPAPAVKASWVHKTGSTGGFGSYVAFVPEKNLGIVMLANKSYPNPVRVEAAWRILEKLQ
In the next test the target is T1, CMY-42 (Klebsiella pneumoniae, UniProt Q48434, V231S).
T1 construct: made in house; host or cells: E. coli TOP10, plasmid pUCp24
T1 sequence (Q48434 21-381 V231S): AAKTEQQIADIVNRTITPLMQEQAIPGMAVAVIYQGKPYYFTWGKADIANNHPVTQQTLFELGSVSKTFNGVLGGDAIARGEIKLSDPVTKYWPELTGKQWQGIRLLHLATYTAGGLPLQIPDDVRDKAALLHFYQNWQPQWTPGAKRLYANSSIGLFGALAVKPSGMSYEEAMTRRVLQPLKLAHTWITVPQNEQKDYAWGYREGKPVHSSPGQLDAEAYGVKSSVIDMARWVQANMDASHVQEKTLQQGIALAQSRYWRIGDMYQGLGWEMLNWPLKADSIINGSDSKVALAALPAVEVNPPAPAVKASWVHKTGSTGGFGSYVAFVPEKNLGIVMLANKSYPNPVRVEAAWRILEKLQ
Kind of test: biochemical. Further details: species or system Citrobacter spp.

A further test has as its target MIR-17. Kind of test: IC50 of β-lactamase inhibitors, crude extract, MIR-17. Format: biochemical, Enterobacter roggenkampii. Particulars: crude extract of E. coli TOP10 recombinant strain, mean of triplicate.
A further test concerns the target MOX-2 (Aeromonas caviae, UniProt Q9L3G2). Kind of test: IC50 of β-lactamase inhibitors, crude extract, MOX-2. In kind it is biochemical.
Another test concerns the target ADC-50 (Acinetobacter baumannii, UniProt Q6DRA1). The test is described as follows: IC50 of β-lactamase inhibitors, crude extract, ADC-50. Format: biochemical, A. baumannii. Particulars: for IC50: ADC-50, crude extract of E. coli TOP10 recombinant strain, mean of triplicate; for inhibition of ADC-50 (in words): ADC-50 of A. baumannii.
The target of the next test is T2, CMY-2 (Klebsiella pneumoniae, UniProt Q48434).
T2 construct: made in house; host or cells: E. coli TOP10, plasmid pUCp24
T2 sequence (Q48434 21-381): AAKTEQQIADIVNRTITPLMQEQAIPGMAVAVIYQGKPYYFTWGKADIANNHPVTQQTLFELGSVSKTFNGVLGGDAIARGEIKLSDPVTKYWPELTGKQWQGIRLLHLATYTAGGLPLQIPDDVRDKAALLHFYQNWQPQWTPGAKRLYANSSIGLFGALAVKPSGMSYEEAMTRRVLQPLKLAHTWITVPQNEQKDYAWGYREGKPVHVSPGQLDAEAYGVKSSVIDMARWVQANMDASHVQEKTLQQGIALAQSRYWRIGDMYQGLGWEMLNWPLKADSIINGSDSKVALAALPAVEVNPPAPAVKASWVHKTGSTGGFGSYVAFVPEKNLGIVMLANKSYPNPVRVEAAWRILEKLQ
The test is described as follows: biochemical. Set-up: species or system Citrobacter spp.

The target in a further test is YRC-1 (Yersinia ruckeri, UniProt Q20I87). Kind of test: IC50 of β-lactamase inhibitors, crude extract, YRC-1. In kind it is biochemical.
Chain of YRC-1 (Q20I87 entry or part of it): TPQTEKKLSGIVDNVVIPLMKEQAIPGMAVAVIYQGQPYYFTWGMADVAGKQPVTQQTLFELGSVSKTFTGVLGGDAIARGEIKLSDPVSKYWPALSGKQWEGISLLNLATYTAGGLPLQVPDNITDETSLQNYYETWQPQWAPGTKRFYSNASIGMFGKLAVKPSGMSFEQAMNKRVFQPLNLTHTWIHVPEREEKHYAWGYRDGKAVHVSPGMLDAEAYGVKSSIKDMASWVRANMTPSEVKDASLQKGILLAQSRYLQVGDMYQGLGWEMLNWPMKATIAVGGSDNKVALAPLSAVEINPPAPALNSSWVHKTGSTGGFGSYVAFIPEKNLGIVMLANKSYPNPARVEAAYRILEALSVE
Another test deals with FOX-5 (Aeromonas allosaccharophila, UniProt Q9F4K3). Kind of test: IC50 of β-lactamase inhibitors, crude extract, FOX-5. Format: biochemical.
Chain of FOX-5 (Q9F4K3 entry or part of it): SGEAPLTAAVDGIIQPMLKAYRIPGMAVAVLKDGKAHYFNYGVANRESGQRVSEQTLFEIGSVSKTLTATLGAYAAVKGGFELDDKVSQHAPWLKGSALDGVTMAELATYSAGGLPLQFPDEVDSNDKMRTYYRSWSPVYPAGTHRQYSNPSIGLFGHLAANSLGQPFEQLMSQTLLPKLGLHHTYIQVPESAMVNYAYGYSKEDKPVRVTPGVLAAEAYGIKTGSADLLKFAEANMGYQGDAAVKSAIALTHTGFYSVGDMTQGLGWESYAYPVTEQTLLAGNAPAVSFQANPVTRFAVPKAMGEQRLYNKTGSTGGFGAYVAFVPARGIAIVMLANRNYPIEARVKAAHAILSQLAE
For another test, the system named is E. coli TOP10. The test is described as follows: microbe, parasite or virus in culture. As to conditions: Escherichia coli, TOP10; E. coli TOP 10; β-lactamase inhibitor alone; read-out: MIC values of inhibitor alone. In kind it is cell-based. As to the method:
In order to assess the relative inhibitory activities of those BLI against AmpC β-lactamases, the corresponding blaampC genes without the original promoter sequences were amplified by PCR with specific primers, and corresponding amplicons were cloned into plasmid pUCp24, as described previously ([12], [13]). […] Cultures of E. coli TOP10 harboring recombinant plasmids and therefore producing the different AmpC tested were grown overnight at 37°C in Luria-Bertani agar medium containing amoxicillin (AMX) (50 µg/mL). The activity of the following acquired class C β-lactamases could therefore be evaluated, namely, ACC-1 (originally from Hafnia spp.), FOX-5 (from Aeromonas allosaccharophila), CMY-2 and CMY-42 (from Citrobacter spp.), DHA-1 (from Morganella morganii), ACT-7 and ACT-17 (from Enterobacter asburiae), MIR-17 (from Enterobacter roggenkampii), MOX-2 (from Aeromonas caviae), and LAT-1 (from Citrobacter portucalensis) ([5]). […] Altogether, these enzymes were chosen as representatives of clinically relevant class C β-lactamases being sources of intrinsic or acquired resistance to broad-spectrum β-lactams among most of the commonly identified Gram-negative bacteria in clinical practice.
MICs were determined in triplicate by broth microdilution (BMD) for CAZ and AMX, as well as their combinations with each β-lactamase inhibitor. CAZ, AMX, and CLA were purchased from Sigma-Aldrich (St. Louis, MO, USA). All others inhibitors (TAZ HY-W009168, AVI HY-14879, REL HY-16752, VAB HY-19930, NAC HY-109008, ZID HY-120859, TAN HY-109124, XER HY-136072, DUR HY-117974, EMT HY-103095) were purchased from MedChem Express (Luzern, Switzerland). The concentration of each β-lactamase inhibitor was chosen as the concentration used in the respective BL/BLI combination under development or commercially available, according to EUCAST or CLSI ([18], [19]). […] BMD assays were performed in cation-adjusted Mueller-Hinton (MH) broth (Bio-Rad, Marnes-la-Coquette, France) for all antibiotics or antibiotic combinations listed above, according to the EUCAST guidelines ([20]).

The target in a further test is ACT-17 (Enterobacter asburiae, UniProt P05364). In kind it is biochemical. Particulars: crude extract of E. coli TOP10 recombinant strain, mean of triplicate.
Chain of ACT-17 (P05364 21-381): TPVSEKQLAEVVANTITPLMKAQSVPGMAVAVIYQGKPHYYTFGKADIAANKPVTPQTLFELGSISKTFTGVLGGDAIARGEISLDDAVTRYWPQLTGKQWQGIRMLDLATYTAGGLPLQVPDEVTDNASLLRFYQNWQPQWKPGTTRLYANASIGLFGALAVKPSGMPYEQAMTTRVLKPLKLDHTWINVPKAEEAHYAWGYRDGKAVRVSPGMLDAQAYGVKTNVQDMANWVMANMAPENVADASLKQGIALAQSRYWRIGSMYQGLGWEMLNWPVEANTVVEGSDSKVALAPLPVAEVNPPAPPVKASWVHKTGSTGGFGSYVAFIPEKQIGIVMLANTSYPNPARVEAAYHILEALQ
A further test concerns the target ACC-1 (Hafnia alvei, UniProt Q9XB24). The test is described as follows: IC50 of β-lactamase inhibitors, crude extract, ACC-1. In kind it is biochemical.
The next test addresses Ear-1 (Klebsiella aerogenes, UniProt A0A0H3FRQ3). Kind of test: IC50 of β-lactamase inhibitors, crude extract, Ear-1. In kind it is biochemical.
The next test concerns the target DHA-1 (Morganella morganii, UniProt P94958). Kind of test: IC50 of β-lactamase inhibitors, crude extract, DHA-1. Format: biochemical.
For another test, the target named is T3, PDC-1 (Pseudomonas aeruginosa, UniProt P24735).
T3 construct: made in house; host or cells: E. coli TOP10, plasmid pUCp24
T3 sequence (P24735 27-397): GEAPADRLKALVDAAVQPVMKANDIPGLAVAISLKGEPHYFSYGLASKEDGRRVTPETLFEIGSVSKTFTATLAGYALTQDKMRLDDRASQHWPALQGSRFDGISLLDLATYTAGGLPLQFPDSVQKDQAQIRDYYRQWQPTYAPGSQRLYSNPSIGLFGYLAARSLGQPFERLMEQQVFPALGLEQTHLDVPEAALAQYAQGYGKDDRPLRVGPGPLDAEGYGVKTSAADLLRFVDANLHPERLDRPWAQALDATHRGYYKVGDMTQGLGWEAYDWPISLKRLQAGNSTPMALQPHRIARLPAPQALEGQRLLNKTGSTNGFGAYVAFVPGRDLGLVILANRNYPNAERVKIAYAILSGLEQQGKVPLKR
Kind of test: biochemical. Set-up: species or system P. aeruginosa.

For the next test, the target named is T4, PDC-5 (Pseudomonas aeruginosa, UniProt P24735, R79Q/T105A).
T4 construct: made in house; host or cells: E. coli TOP10, plasmid pUCp24
T4 sequence (P24735 27-397 R79Q/T105A): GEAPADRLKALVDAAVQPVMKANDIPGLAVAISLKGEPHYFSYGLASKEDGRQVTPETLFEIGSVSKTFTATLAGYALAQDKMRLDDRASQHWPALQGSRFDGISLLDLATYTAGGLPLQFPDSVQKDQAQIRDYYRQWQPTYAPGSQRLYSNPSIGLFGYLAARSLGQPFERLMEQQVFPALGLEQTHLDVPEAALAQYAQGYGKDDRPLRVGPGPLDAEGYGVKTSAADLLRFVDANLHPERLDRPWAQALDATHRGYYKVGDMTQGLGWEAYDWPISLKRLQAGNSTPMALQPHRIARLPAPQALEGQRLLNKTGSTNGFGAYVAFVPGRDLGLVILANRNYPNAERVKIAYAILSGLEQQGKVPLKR
Kind of test: biochemical. Further details: species or system P. aeruginosa.

The target of the next test is PDC-382 (Pseudomonas aeruginosa, UniProt P24735, T96I). The test is described as follows: biochemical. Set-up: species or system P. aeruginosa.
Chain of PDC-382 (P24735 27-397 T96I): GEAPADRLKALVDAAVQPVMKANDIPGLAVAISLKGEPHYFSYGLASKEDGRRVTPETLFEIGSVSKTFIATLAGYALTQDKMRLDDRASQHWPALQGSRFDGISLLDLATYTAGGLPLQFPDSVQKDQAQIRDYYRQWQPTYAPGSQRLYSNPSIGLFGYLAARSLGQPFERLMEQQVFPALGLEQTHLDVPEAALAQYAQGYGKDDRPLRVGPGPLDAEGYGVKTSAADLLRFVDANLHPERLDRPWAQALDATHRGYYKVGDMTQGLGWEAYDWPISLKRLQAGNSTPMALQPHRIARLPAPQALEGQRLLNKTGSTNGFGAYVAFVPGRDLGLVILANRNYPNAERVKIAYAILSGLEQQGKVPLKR

Chain of MOX-2 (Q9L3G2 entry or part of it): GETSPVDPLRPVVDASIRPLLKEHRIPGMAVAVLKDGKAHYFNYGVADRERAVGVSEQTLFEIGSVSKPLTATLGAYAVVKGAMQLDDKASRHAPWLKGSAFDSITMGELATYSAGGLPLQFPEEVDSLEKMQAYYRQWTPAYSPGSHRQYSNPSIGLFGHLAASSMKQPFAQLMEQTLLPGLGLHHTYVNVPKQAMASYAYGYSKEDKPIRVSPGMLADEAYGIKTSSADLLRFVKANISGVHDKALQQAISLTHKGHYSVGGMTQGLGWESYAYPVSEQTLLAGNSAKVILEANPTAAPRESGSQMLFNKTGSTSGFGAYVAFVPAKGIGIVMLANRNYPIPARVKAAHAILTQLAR
Chain of Ear-1 (A0A0H3FRQ3 entry or part of it): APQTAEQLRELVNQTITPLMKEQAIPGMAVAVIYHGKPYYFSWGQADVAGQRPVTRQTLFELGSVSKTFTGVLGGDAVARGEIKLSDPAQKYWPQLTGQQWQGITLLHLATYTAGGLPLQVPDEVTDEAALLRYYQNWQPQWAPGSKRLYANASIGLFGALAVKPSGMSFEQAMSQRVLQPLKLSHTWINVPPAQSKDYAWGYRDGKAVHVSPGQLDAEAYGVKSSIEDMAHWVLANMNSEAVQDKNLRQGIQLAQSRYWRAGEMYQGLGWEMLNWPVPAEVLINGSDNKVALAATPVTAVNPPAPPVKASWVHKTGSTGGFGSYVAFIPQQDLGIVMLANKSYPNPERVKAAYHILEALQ

As to `O=C(NNC(=O)[C@@H]1CC[C@@H]2CN1C(=O)N2OS(=O)(=O)O)[C@@H]1CCCNC1` [Zidebactam, zidebactam], the IC50 was found to be 0.12 µM at ACT-7; 37 µM on SRT-1; 0.005 µM against LAT-1; 0.17 µM against CMY-42; 0.11 µM on MIR-17; 2.7 µM at MOX-2. The IC50 worked out at 5.5 µM on ADC-50; 5 µM on ADC-50 (listed as ZID); 0.12 µM against CMY-2; 0.09 µM against YRC-1; 0.99 µM against FOX-5; 0.14 µM at ACT-17. Besides, the IC50 at ACC-1 was determined as 0.09 µM; at Ear-1, 0.12 µM; at DHA-1 it was 0.06 µM. Moreover, in the test on E. coli TOP10, the MIC is 0.125 µg/mL.
Turning to `NC(=O)[C@@H]1CC[C@@H]2CN1C(=O)N2OS(=O)(=O)O` [Avibactam, avibactam], the 50% inhibitory concentration (IC50) on ACT-7 amounted to 0.8 µM; at SRT-1, 6.7 µM; against LAT-1, 0.4 µM; against CMY-42 it was 0.65 µM; on MIR-17, 1 µM; against MOX-2, 5.6 µM. For the same compound, the IC50 is 61 µM on ADC-50; above 13 µM at ADC-50 (listed as AVI); 0.61 µM against CMY-2; 2.1 µM against YRC-1; 1 µM at FOX-5; 0.9 µM on ACT-17. Moreover, the figures for the IC50 against ACC-1, against Ear-1 and at DHA-1 were 0.25 µM, 0.88 µM and 0.11 µM, respectively.
Regarding `O=C(O)[C@H]1/C(=C/CO)O[C@@H]2CC(=O)N21` [Clavulanic acid, clavulanic acid], the IC50 against ACT-7, on SRT-1, against LAT-1, against CMY-42, at MIR-17 and on MOX-2 was above 100 µM throughout. Further, the half-inhibitory concentration (IC50) on ADC-50, against CMY-2, on YRC-1, against PDC-1, against FOX-5 and at PDC-5 was above 100 µM each time. The IC50 against PDC-382, at ACC-1, against Ear-1 and at DHA-1 was above 100 µM throughout.
Consider `O=C(NC1CCNCC1)[C@@H]1CC[C@@H]2CN1C(=O)N2OS(=O)(=O)O` [Relebactam, relebactam], for which the IC50 came out at 0.71 µM against ACT-7; 37 µM at SRT-1; 0.23 µM on LAT-1; 1.1 µM against CMY-42; 1.3 µM at MIR-17; 2.4 µM on MOX-2. Further, the IC50 was 13 µM at ADC-50; above 13 µM at ADC-50 (listed as REL); 0.59 µM against CMY-2; 1.9 µM at YRC-1; 2 µM on FOX-5; 0.33 µM on ACT-17. For the same compound, the half-maximal inhibitory concentration (IC50) on ACC-1 was found to be 0.58 µM; against Ear-1, 0.89 µM; at DHA-1, 0.85 µM.
`C[C@]1(Cn2ccnn2)[C@H](C(=O)O)N2C(=O)C[C@H]2S1(=O)=O` [Tazobactam, tazobactam]: the 50% inhibitory concentration (IC50) at ACT-7 is 23 µM; on SRT-1 it was 48 µM; on LAT-1 it was 7.3 µM; against CMY-42 it was 24 µM; at MIR-17, 83 µM; against MOX-2, above 100 µM. Besides, the IC50 is above 100 µM at ADC-50; 20 µM at CMY-2; above 100 µM against YRC-1; 23 µM at FOX-5; 2.1 µM against ACC-1; 72 µM against Ear-1. This compound also registered an IC50 at DHA-1 of 1.3 µM.
As to `Cn1cc[n+](C[C@@]2(C)[C@H](C(=O)[O-])N3C(=O)C[C@H]3S2(=O)=O)n1` [Enmetazobactam, enmetazobactam], the IC50 was 43 µM on ACT-7 (ACT-7, crude extract of E. coli TOP10 recombinant strain, mean of triplicate, read-out: IC50); above 100 µM at SRT-1 (read-out: IC50); 97 µM on LAT-1 (LAT-1, crude extract of E. coli TOP10 recombinant strain, mean of triplicate, read-out: IC50); 64 µM at CMY-42 (CMY-42, crude extract of E. coli TOP10 recombinant strain, mean of triplicate, read-out: IC50); above 100 µM at MIR-17; above 100 µM on MOX-2 (MOX-2, crude extract of E. coli TOP10 recombinant strain, mean of triplicate, read-out: IC50). The IC50 is above 100 µM on ADC-50 (read-out: IC50); 40 µM at CMY-2 (CMY-2, crude extract of E. coli TOP10 recombinant strain, mean of triplicate, read-out: IC50); above 100 µM at YRC-1 (YRC-1, crude extract of E. coli TOP10 recombinant strain, mean of triplicate, read-out: IC50); above 100 µM on PDC-1 (PDC-1, crude extract of E. coli TOP10 recombinant strain, mean of triplicate, read-out: IC50); above 100 µM on FOX-5 (FOX-5, crude extract of E. coli TOP10 recombinant strain, mean of triplicate, read-out: IC50); above 100 µM at PDC-5 (PDC-5, crude extract of E. coli TOP10 recombinant strain, mean of triplicate, read-out: IC50). For the same compound, the IC50 on PDC-382 (PDC-382, crude extract of E. coli TOP10 recombinant strain, mean of triplicate, read-out: IC50) is above 100 µM; on ACT-17 (read-out: IC50) it was 62 µM; on ACC-1 (ACC-1, crude extract of E. coli TOP10 recombinant strain, mean of triplicate, read-out: IC50) it was 39 µM; at Ear-1 (Ear-1, crude extract of E. coli TOP10 recombinant strain, mean of triplicate, read-out: IC50), 91 µM; on DHA-1 (DHA-1, crude extract of E. coli TOP10 recombinant strain, mean of triplicate, read-out: IC50) it was 26 µM. Besides, the “inhibition of ADC-50 (in words)” value at ADC-50 is listed as “not significantly inhibited”.
For the compound `O=C(O)C[C@@H]1CC[C@H](NC(=O)Cc2cccs2)B(O)O1` [Vaborbactam, vaborbactam], the IC50 at ACT-7 was 3.6 µM; at SRT-1 it was 6.9 µM; against LAT-1, 1.2 µM; at CMY-42 it was 13 µM; at MIR-17, 1.1 µM; at MOX-2, 1.9 µM. Besides, the IC50 on ADC-50 is above 100 µM; on CMY-2, 5.3 µM; against YRC-1, 2 µM; on PDC-1 it was 11 µM; against FOX-5, 17 µM; at PDC-5, 37 µM. Further, the IC50 against PDC-382 was determined as 54 µM; on ACT-17, 2.6 µM; against ACC-1, 3.6 µM; against Ear-1, 0.84 µM; against DHA-1, 3.1 µM. On ADC-50, the “inhibition of ADC-50 (in words)” value is listed as “not significantly inhibited”.
